Data reported in patent US20050220779A1, “Integrin linked kinase modulation of macrophage activation” (priority 2001, published 2005).

Legend:
COX-2 = COX-2 protein expression in LPS-IFN-γ stimulated macrophages (western blot); format: cell-based, murine; conditions: LPS-IFN-γ stimulated macrophages, western blot
Protocol: (§1) Western blot analysis. After incubation with the indicated stimuli in the presence of ILK inhibitors, cells (duplicate samples, 2×10^6cell/6-wells plate) were washed in PBS and lysed on ice in 60 μl of lysis buffer. The protein content of each sample was determined using the Bradford protein assay kit (Bio-Rad, Richmond, Calif.). Absorbance was measured at 750 nm with a Beckman DU530 spectrophotometer (Palo Alto, Calif.). Proteins were mixed with 45×SDS sample buffer. Following separation of proteins by SDS-PAGE, using 8% bis-acrylamide in the separation gel, the proteins were transferred from the gels onto PVDF membranes using a MiniProtean III Cell (Bio-Rad), at 100 V for 1.5 h. Equal amounts of protein (5 μg) were loaded onto SDS-PAGE gels and examined by Western blot analysis with anti-Actin, anti-iNOS, anti-COX-2 murine monoclonal antibodies according to the manufacturers specifications (Transduction Laboratories). […] The Multi-Analyst/PC system from Biorad is being used to quantitate the bands of the expressed protein on the film. […] White light is chosen as the selected light source, thus the signal strength is measured in OD (optic density) units. […]
(§2) Effects of ILK inhibitors on the LPS-IFN-γ-induced iNOS and COX-2 expression NO production requires that iNOS be enzymatically activity, therefore experiments were performed to examine whether the inhibitory effect of ILK inhibitors was mediated by […] iNOS protein synthesis or effects on the activity of existing enzyme. Stimulated cells were treated with ILK inhibitors (25 μM), and lysed 16 h later and a western blot analysis was performed to quantitate iNOS protein expression. […]
Nitric oxide and Prostaglandin E2 are two pleiotropic mediators produced at inflammatory sites by the inducible enzymes iNOS and cyclooxygenase-2 (COX-2), respectively. […] Finally, we evaluated the in-vitro effects of compounds on production of MCP-1 chemokine by TNF-α stimulated HUVEC cells. […]

iNOS = iNOS protein expression in LPS-IFN-γ stimulated macrophages (western blot); format: cell-based, murine; conditions: LPS-IFN-γ stimulated macrophages, western blot
Protocol: as §1, with “Laboratories). Primary Abs, in 5% blocking buffer (5% NFM/TTBS), were incubated with blots 2 h or overnight at 4° C., followed by incubation with peroxidase-conjugated secondary antibody. Chemiluminescence substrates were used to reveal positive bands. The bands were exposed on x-ray films.” for “Laboratories).”
as §2

[1] = system: C57BL/6 cells (primary peritoneal macrophages); assay: Cell survival by crystal violet staining, C57BL/6 cells; format: cell-based; conditions: 50 μM, 24 h, DMSO-treated = 100%
Protocol: (§3) Treatment of primary macrophages and RAW 264.7 cells. […] Following 3 h incubation, at 37 C, 5% CO2 (macrophages were allowed to attach) cells were stimulated with LPS (0.5 μg/ml) and IFN-γ (100 U/ml) in the absence or presence of various concentrations of ILK inhibitors (all treatments were replicated six times). Cells were incubated for an additional 24 h, and cell free culture supernatants from each well were collected for NO and cytokine determination. The remaining cells were stained with crystal violet to determine effect of the inhibitors on cell survival.
(§4) Effect of ILK Inhibitors on suppression of NO production and cell survival. Twenty-four hours following treatment with the ILK inhibitors, aliquots from the cell-free supernatants were assayed for NO and IL-6 release. Surviving cells were stained and fixed (crystal violet 0.05% in 20% ethanol), to determine if the decrease in NO production was related to a decrease in cell number due to toxicity of the compounds.

[2] = system: BALB/c cells (primary peritoneal macrophages); assay: LPS-IFN-γ-induced macrophage NO production (Griess nitrite assay), BALB/c cells; format: cell-based, mouse; conditions: 50 μM, 24 h; for NO release (%): relative to DMSO treated cells; for inhibition at 50 µM: Mus musculus, Peritoneal macrophage
Protocol: Isolation of primary mouse macrophages. Peritoneal exudate macrophages were isolated by peritoneal lavage with ice-cold sterile physiological saline 24 h after intraperitoneal injection of BALB/c and CB57BL/6 mice with 0.3 ml of sterile Zymosan A (1 mg/0.5 ml 0.9% saline). Cells were washed, resuspended in RPMI 1640 supplemented with 2 mM L-glutamine, 100 units/ml penicillin, 100 μg/ml streptomycin, and 5% FBS.
Treatment of primary macrophages and RAW 264.7 cells. Primary macrophages (1.5×10^5 cells/well) and RAW 264.7 (4×10^4 cells/well) cells were grown in 96-well plates (nitrite assay), or 6-well plates (2×10^6 cells/well) for measurement of iNOS and COX-2 expression. Following 3 h incubation, at 37 C, 5% CO2 (macrophages were allowed to attach) cells were stimulated with LPS (0.5 μg/ml) and IFN-γ (100 U/ml) in the absence or presence of various concentrations of ILK inhibitors (all treatments were replicated six times). Cells were incubated for an additional 24 h, and cell free culture supernatants from each well were collected for NO and cytokine determination. The remaining cells were stained with crystal violet to determine effect of the inhibitors on cell survival.
NO production. Following stimulation, the production of NO was determined by assaying culture supernatants for NO2^−, a stable reaction product of NO with molecular oxygen. Briefly, 100 μl of culture supernatant was reacted with an equal volume of Griess reagent at room temperature for 10 min. The absorbance at 550 nm was determined. All measurements were performed six times. The concentration of NO2^−was calculated by comparison with a standard curve prepared using NaNO2.
Effects of ILK inhibitors on LPS-IFN-γ-induced NO release. […] […] To compare the effect of the compounds across three different cell types, the NO release for each cell type was expressed relative to DMSO treated cells. […] For example, macrophages from Balb/c and C57BL/6 mice responded similarly to the treatment with the compounds.

[3] = system: BALB/c cells (primary peritoneal macrophages); assay: Cell survival by crystal violet staining, BALB/c cells; format: cell-based; conditions: 24 h, 50 μM
Protocol: as §3, §4

SMILES	COX-2 protein expression (in words) (COX-2)	iNOS protein expression (in words) (iNOS)	Survival (%) [1] [%]	NO release (%) [2] [%]	inhibition at 50 µM [2] [%]	Survival (%) ([3]; BALB/c, mouse)	Survival (%) ([3]; BALB/c cells, DMSO-treated = 100%)
N=C(N)N/N=C/c1ccc(Cl)cc1Cl [KP-16735]	significant decrease of COX-2 protein expression	significantly inhibited the expression of iNOS protein	49	−4.2	106	73	
Oc1ccc2c(c1)CC1NCCc3cc(O)c(O)c-2c31 (stereo not drawn) [KP-21849, 5,6,6a,7-Tetrahydro-4H-dibenzo[de,g]quinoline-1,2,9-triol]	significant decrease of COX-2 protein expression	significantly inhibited the expression of iNOS protein	44	−4.2	110		41
